Tested on: Naïve T cells from WT and KO mice
Experiment: Th1 differentiation assay with PI3K/Akt pathway inhibitors, IFN-γ expression by flow cytometry
Type: cell-based, mouse
Conditions: Th1 conditions, all concentrations
Procedure: (A) Naïve T cells from WT and KO mice were cultured under Th1 conditions for three days in the presence of PI3K inhibitors (Akti, LY294002 and IC-87114), re-stimulated with PMA/Ionomycin and analyzed for IFNγ and CD25 expression. (B) Quantitation of A. p values were calculated using two-way ANOVA with Sidak's multiple comparisons test. p values are represented with the following symbols: *0.01-0.05, **0.001-0.01, ***<0.001. Data are representative of more than three experiments.
CD4 T cells from spleens and lymph nodes of naïve mice were purified by magnetic separation using the Miltenyi Biotec naïve CD4 T cell isolation kit (Cat#130-104-453). The purity of the final cell population was >90%. […] Cells were then harvested and analyzed by flow cytometry.
In order to determine whether the difference in Th1 polarization was actually due to the absence of PI3K modulation by TrIP, the Th1 differentiation assay was performed on WT and KO T cells with the addition of moderate concentrations of PI3K/Akt pathway inhibitors. […] At the end of culture, cells were re-stimulated with PMA/Ionomycin and evaluated by flow cytometry for IFN-γ expression. […]

Cc1ccccc1-n1c(Cn2cnc3c(N)ncnc32)nc2cccc(C)c2c1=O [IC-87114]
relative potency among the three inhibitors for IFN-γ production: most potent inhibitor at all concentrations

— patent US20180250393A1, “MANIPULATION OF T CELL AND MAST CELL ACTIVATION BY PIK3IP1” (UNIVERSITY OF PITTSBURGH-OF THE COMMONWEALTH SYSTEM OF …, priority 2017, published 2018)
